From patent publication US11760733B2, “Small molecule regulators of mitochondrial fusion and methods of use thereof” (Washington University, priority 2017, dated 2023)
Entries after “also recorded” stand apart in the source; their conditions may differ. Blank lines part the entries; values can stand above or below the compound they belong to.

Tests used:
[1] = Liver microsome stability; assay type: in vitro ADME, human
Experimental: (§1) Plasma protein binding was measured using equilibrium dialysis; % bound=(1−[free compound in dialysate]/[total compound in retentate])×100. Plasma stability of […] compound in clarified freeze-thawed plasma was assessed by LC-MS/MS of supernatants after protein precipitation; 120 min data are reported for studies including 0, 10, 30, 60, and 120 min. Microsome stability of […] compound in liver microsomes (0.5 mg/ml) after 0, 5, 10, 20, 30, 60 min. incubation was assessed by LC/MS/MS of reaction extracts.

[2] = tested on: Mfn2 null MEFs; assay: Mitochondrial elongation (aspect ratio) fusogenicity assay; assay type: cell-based, mouse
From the text: A cultured murine embryonic fibroblast assay system was used in which mitochondrial elongation (an increase in aspect ratio) reflects enhanced mitochondrial fusion.
A pharmacophore model was generated based on the interactions of HR1 and HR2 domains in the calculated structural model of Mfn2 in the closed conformation. The key features included hydrophobic interactions involving Mfn2 HR1: Val372 and Met376, and aromatic interactions and hydrogen bonding involving Mfn2 HR1 His380. […] A library comprising ˜14 million commercially available compounds was prepared in silico and evaluated using PHASE to fit these criteria. Top ranked hits were clustered, and filtered based on pharmacological properties using Qikprop. The top 55 (see TABLE 4) commercially available small molecules conforming to the model were selected for functional screening and purchased in 1 mg aliquots. Each compound was dissolved to a stock concentration of 10 mM in DMSO and applied to Mfn2 null MEFs overnight at a final concentration of 1 mM. […] Images were acquired by confocal microscopy. Each compound was scored for fusogenicity (see e.g., FIG. 24A) and % cell death (see e.g., FIG. 24B).
Wild-type MEFs were prepared from E10.5 c57/bl6 mouse embryos. […] MEFs were subcultured in DMEM (4.5 g/L glucose) plus 10% fetal bovine serum, 1× nonessential amino acids, 2 mM L-glutamine, 100U/ml penicillin and 100 ug/ml streptomycin.
Cells were excited with 408 nm (Hoechst), […] (MitoTracker Green and Calcein AM, GFP), or 637 nm (TMRE, MitoTracker Orange, Ethidium homodimer-1, and AF594-Dextran) laser diodes. For mitochondrial elongation studies mitochondrial aspect ratio (long axis/short axis) was calculated using automated edge detection and Image J software. Mitochondrial depolarization was calculated as % of green mitochondria visualized on MitoTracker Green and TMRE merged images, expressed as green/(green+yellow mitochondria)×100.

[3] = Parallel artificial membrane permeability assay (PAMPA); assay type: in vitro ADME
[4] = target: P-gp/MDR1 (Homo sapiens, UniProt P08183); assay: P-gp/MDR1 transport; assay type: in vitro ADME
[5] = In vivo pharmacokinetics in mice; set-up: species or system mouse; conditions: 2 hours after IM administration, 1 mg/kg
Experimental: (A) Three mice each were administered 1 mg/kg agonist IV, IP, or IM. Graphs are mean plasma concentration for each administration route. (B) Results for individual mice were administered 1 mg/kg indicated agonist IM.

[6] = tested on: CMT2A MFN2 T105M mice; assay: In vivo sciatic nerve mitochondrial motility in CMT2A mice; set-up: species or system mouse; conditions: IM 2 mg/kg twice, assessed 4 hours later
Experimental: Sciatic nerve mitochondrial motility was measured 4 hours later. Results described in FIG. 58 are for 2 CMT2A mice per group.

[7] = Solubility in 50 mM phosphate buffer pH 7.4; assay type: physicochemical
[8] = tested on: MFN2 T105M sciatic nerves; assay: Sciatic nerve axonal mitochondrial motility, agonist applied to nerve; conditions: MFN2 T105M mouse sciatic nerve
Experimental: Sciatic nerves of 12-18 week old male or female MFN2 T105M mice were removed en bloc with the lumbar spine and axotomy at the tibial nerve, stained with TMEM ([…]) for 30 minutes in prewarmed Neurobasal Medium without phenol red (Thermo Fisher Scientific) at room temperature, washed, and maintained on the stage of a Nikon A1Rsi Confocal Microscope at 37 degrees C. for time-lapse confocal studies. Images were acquired with a 40× oil immersion objective at 1 frame every 5 or 10 seconds for sequential 10 minute periods. Mitofusin agonist chimera B-A/I was added after the first 10 minute imaging period (final concentrations of […]) and nerve axons imaged for another 40 minutes. Because there was no difference in mitochondrial trafficking or response to mitofusin agonist between male and female mice, the data were combined.

[9] = Plasma stability; assay type: in vitro ADME
Experimental: as §1

[10] = tested on: MFN2 Asp378 and Ala378 mutants; assay: Mitochondrial fusion in cells expressing MFN2 Ser378 mutants; assay type: cell-based, human; conditions: phosphomimic Asp378 vs nonphosphorylatable Ala378
From the text: On the basis of fluorescence resonance energy transfer (FRET) analysis of MFN2 labeled at the N and C termini, mitofusin agonists promoted an open MFN2 conformation favoring mitochondrial fusion, with a rank order paralleling that for HR2 binding and mitochondrial fusion (see e.g., FIG. 11G; compare to FIG. 11B and FIG. 11C), supporting allosteric activation.
Human Mfn2 Ser378 was mutated to Ala or Asp by site-directed mutagenesis using the QuikChange Lightning kit (Agilent Technologies Inc.) and primers: […]
Mfn2 and its mutants were sub-cloned into adenoviral vector Type 5 (dE1/E3) with RGD-fiber modification (Vector Biolabs) using BamHI/XhoI. All constructs were verified by Sanger DNA sequencing. Adeno-viral PINK1 was purchased from Vector Biolabs.

[11] = tested on: Mfn1/Mfn2 double null MEFs; assay: Mitochondrial elongation in Mfn1/Mfn2 double null MEFs; assay type: cell-based, mouse
[12] = target: T1, Mfn2 HR2 target peptide (Homo sapiens, UniProt O95140); assay: HR1 peptide-HR2 target binding assay; conditions: in vitro binding assay devoid of cellular kinases
T1 construct: Gly linker (GGGG after the His tag)
T1 sequence (O95140 with tags, fused parts or gaps limits assumed): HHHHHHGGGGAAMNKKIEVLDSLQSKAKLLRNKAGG
From the text: The Mfn-derived fusion-promoting and -inhibiting mini-peptides (simulated to obtain the chemical Mfn agonists in TABLE 1 and TABLE 2) were modified from amino acid heptad repeats (HR) in the HR1 domain and predicted to interact with their counterparts in the carboxyl terminus HR2 domain within the Mfn stalk region (see e.g., FIG. 1, top panel). A high-throughput binding assay was designed whereby the target HR2 peptide sequences, modified to include amino terminal 6×His tags and Gly linkers, were bonded to Ni-chelate resin (20 μg/ml) and used as immobilized “receptor” for amino-FITC-tagged Mfn2 374-384 (agonist ligand) in which the Ser analogous to Ser378 was replaced with Asp to confer the negative charge essential for activity. For antagonist studies the ligand was amino-FITC-tagged Mfn2 406-418. The FITC peptide ligands are suspended at 1 mM in 30% DMSO, 70% water (to minimize spontaneous aggregation) and diluted into binding buffer (de-ionized water) to a final concentration of 25 μM in the presence or absence of competing compound. Dose-dependent loss of resin-bound FITC signal (485 nm excitation/538 nm emission) measured in a 96 well spectrofluorometer represents binding of compound to its HR2 target (see e.g., FIG. 10, FIG. 11). Either the ligand peptide or the receptor peptide can be modified to represent mutations, variations, or posttranslational modifications of Mfn2. […]
Target HR2 peptide sequence modified to include amino terminal 6×His tags and Gly linkers, were bonded to Ni-NTA resin (4.4 μg/ml) (Quiagen) and used as immobilized “receptor” for amino-FITC-tagged Mfn2 374-384 (ligand) in which the Ser analogous to Ser378 was replaced with Asp to confer the negative charge essential for activity. […] Resin-bound FITC signal (485 nm excitation/538 nm emission) measured in a 96 well spectrofluorometer (Spectramax M5e, Molecular Devices) represented binding to HR2 target. Competition binding isotherms were plotted and IC50 values calculated using Prism 7 (Graph Pad).

Chain of P-gp/MDR1 (P08183 whole entry): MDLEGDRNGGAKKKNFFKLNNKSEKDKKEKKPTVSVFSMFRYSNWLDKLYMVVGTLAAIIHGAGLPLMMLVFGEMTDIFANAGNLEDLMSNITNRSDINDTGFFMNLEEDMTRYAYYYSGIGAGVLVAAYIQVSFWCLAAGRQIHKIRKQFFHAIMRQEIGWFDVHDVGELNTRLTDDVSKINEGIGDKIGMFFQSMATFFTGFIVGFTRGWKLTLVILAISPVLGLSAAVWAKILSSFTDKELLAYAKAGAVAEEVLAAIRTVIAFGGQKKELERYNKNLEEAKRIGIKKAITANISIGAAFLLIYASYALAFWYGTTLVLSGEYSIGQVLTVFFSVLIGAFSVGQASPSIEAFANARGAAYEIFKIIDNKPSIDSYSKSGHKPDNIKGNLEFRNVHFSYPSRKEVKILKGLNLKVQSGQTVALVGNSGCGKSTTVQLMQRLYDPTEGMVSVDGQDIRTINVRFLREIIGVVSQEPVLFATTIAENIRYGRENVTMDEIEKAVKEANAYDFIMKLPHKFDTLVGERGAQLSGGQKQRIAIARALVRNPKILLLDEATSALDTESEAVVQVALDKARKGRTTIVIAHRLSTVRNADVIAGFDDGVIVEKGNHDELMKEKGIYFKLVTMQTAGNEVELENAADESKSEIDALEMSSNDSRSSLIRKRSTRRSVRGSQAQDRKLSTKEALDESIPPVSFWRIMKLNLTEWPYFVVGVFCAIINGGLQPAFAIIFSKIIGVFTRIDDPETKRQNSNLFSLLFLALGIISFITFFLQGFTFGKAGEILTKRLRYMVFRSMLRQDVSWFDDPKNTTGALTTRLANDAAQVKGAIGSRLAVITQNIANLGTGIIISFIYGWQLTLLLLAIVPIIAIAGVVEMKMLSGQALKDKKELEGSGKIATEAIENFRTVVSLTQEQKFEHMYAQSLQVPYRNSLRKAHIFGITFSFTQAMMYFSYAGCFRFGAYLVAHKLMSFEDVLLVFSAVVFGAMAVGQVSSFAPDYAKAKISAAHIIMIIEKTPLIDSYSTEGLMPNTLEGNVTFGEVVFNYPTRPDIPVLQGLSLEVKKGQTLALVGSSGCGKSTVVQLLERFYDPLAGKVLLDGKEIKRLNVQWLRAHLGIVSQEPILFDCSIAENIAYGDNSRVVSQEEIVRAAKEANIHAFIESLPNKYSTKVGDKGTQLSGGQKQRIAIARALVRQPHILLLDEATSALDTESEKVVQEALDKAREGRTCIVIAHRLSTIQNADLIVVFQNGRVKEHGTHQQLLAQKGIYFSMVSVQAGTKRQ

Compound: Cn1c(SCC(=O)Nc2sc3c(c2C(N)=O)CCC3)nnc1-c1ccccc1 [1-61, 2-{2-[(4-methyl-5-phenyl-4H-1,2,4-triazol-3-yl)sulfanyl]acetamido}-4H,5H,6H-cyclopenta[b]thiophene-3-carboxamide]
liver microsome stability, in words [1]: greater resistance to liver microsomal degradation | potency relative to other compounds, in words [2]: more potent

Compound: CCn1c(SCC(=O)Nc2sc3c(c2C(N)=O)CCC3)nnc1C1CC1 [1-G11, 2-{2-[(5-cyclopropyl-4-ethyl-4H-1,2,4-triazol-3-yl)sulfanyl]acetamido}-4H,5H,6H-cyclopenta[b]thiophene-3-carboxamide]
liver microsome stability, in words [1]: greater resistance to liver microsomal degradation | potency relative to other compounds, in words [2]: more potent

Compound: CCn1c(CCCNC(=O)NC2CCOCC2)nnc1C1CC1 [Mitolityn-4, 1-(3-(5-cyclopropyl-4-ethyl-4H-1,2,4-triazol-3-yl)propyl)-3-(tetrahydro-2H-pyran-4-yl)urea]
liver microsome stability, in words [1]: stability in the liver microsome assay | passive diffusion across lipid-infused artificial membrane (PAMPA), in words [3]: no passive diffusion across lipid membrane | P-gp/MDR1 transport, in words [4]: no reverse transport by P-gp | potency relative to other compounds, in words [2]: highest potency

Compound: Cn1c(CCCNC(=O)NC2CCOCC2)nnc1C1CC1 [Mitolityn-6, 1-(3-(5-cyclopropyl-4-methyl-4H-1,2,4-triazol-3-yl)propyl)-3-(tetrahydro-2H-pyran-4-yl)urea]
liver microsome stability, in words [1]: stability in the liver microsome assay | potency relative to other compounds, in words [2]: highest potency

Compound: CC1CCCCC1NC(=O)NCCCc1nnc(C2CC2)n1-c1ccccc1 (centres unmarked) [Regeneurin-C, 1-(3-(5-cyclopropyl-4-phenyl-4H-1,2,4-triazol-3-yl)propyl)-3-(2-methylcyclohexyl)urea]
passive diffusion across lipid-infused artificial membrane (PAMPA), in words [3]: excellent passive diffusion | P-gp/MDR1 transport, in words [4]: actively transported by P-gp/MDR1 | total plasma drug concentration [5]: undetectable

Compound: O=C(NCCCc1nnc(C2CC2)n1-c1ccccc1)NC1CCOCC1 [Regeneurin-C/O, 1-(3-(5-cyclopropyl-4-phenyl-4H-1,2,4-triazol-3-yl)propyl)-3-(tetrahydro-2H-pyran-4-yl)urea]
sciatic nerve axon mitochondrial motility in vivo [6]: corrects CMT2A neuronal mitochondrial dymotility in vivo; also recorded: reverses the characteristic mitochondrial immobility in sciatic nerve axons

Compound: CC1CCCCC1NC(=O)NCCSCc1ccccc1 (centres unmarked) [compound A, 1-[2-(benzylsulfanyl)ethyl]-3-(2-methylcyclohexyl)urea]
selectivity of fusogenic effect for MFN2 Ser378 mutants [10]: specific for the Asp^378 mutant | mitochondrial elongation in absence of both mitofusins [11]: did not occur | fusogenic activity (mitochondrial elongation), in words [2]: induced mitochondrial elongation

More lines, main results first:

solubility, in words [7]: soluble | plasma stability, in words [9]: stable in plasma
Compound: CC1CCCCC1NC(=O)NCCSc1nnc(C2CC2)n1-c1ccccc1 (centres unmarked) [Regeneurin-S]
liver microsome stability, in words [1]: rapid degradation; also recorded: rapidly degraded by liver microsomes | sciatic nerve axonal mitochondrial motility [8]: rapidly correct mitochondrial dysmotility

binding of minipeptide to HR2 interacting domain [12]: did not
Compound: Ala^378 minipeptide: MFN2 374-384 minipeptide in which "Ser^378 was substituted (with Ala, Cys, Asn or Gly)": the Ala variant (LIMDALHMAAR; UniProt O95140 374-384, looked up, variant S378A)

binding of minipeptide to HR2 interacting domain [12]: did not
Compound: Ser^378 minipeptide: "smallest fusion promoting minipeptide (residues 374 to 384)" of MFN2 HR1, with unsubstituted Ser^378 (LIMDSLHMAAR; UniProt O95140 374-384, looked up, fragment)
